Reference: PubChem BioAssay (NCI)
Where “and” joins values, the source holds several entries; their conditions need not be identical. Identical values can stand only once.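 Compound exposure: 48 hours, 5 concentrations, 96-well plates. GI50 is the concentration that inhibits growth by half. TGI: total growth inhibition.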

How the values were obtained:
Test in all cases: NCI-60 cell line screen, 48 h
A549 NSCLC = test system: A549 NSCLC
ACHN renal = test system: ACHN renal
HS 578T breast = test system: HS 578T breast
KM12 colon = test system: KM12 colon
MALME-3M melanoma = test system: MALME-3M melanoma
MDA-N = test system: MDA-N
NCI-H522 lung = test system: NCI-H522 lung
PC-3 prostate = test system: PC-3 prostate
SW-620 colon = test system: SW-620 colon
UO-31 renal = test system: UO-31 renal

Structure (SMILES)	TGI (A549 NSCLC) [µM]	TGI (ACHN renal)	TGI (HS 578T breast) [µM]	TGI (KM12 colon)	TGI (MALME-3M melanoma)	TGI (MDA-N) [µM]	TGI (NCI-H522 lung)	TGI (PC-3 prostate) [µM]	TGI (SW-620 colon)	TGI (UO-31 renal)	GI50 (A549 NSCLC) [µM]	GI50 (ACHN renal) [µM]	GI50 (HS 578T breast) [µM]	GI50 (PC-3 prostate) [µM]	GI50 (SW-620 colon) [µM]	GI50 (UO-31 renal) [µM]	GI50 (KM12 colon) [µM]	GI50 (MALME-3M melanoma) [µM]	GI50 (NCI-H522 lung) [µM]
COc1ccc(N2C(=O)C(=O)C3(CCCCC3)C2=O)c(OC)c1OC	> 100	> 100 µM	> 100	> 100 µM	> 100 µM	> 100	> 100 µM	> 100	> 100 µM	> 100 µM	–	–	–	–	–	–	–	–	–
Cc1sc2nc3n(c(=O)c2c1C)N=C(c1ccccc1)CS3	> 100	> 100 µM	> 100	> 100 µM	> 100 µM	> 100	> 100 µM	> 100	> 100 µM	> 100 µM	–	–	–	–	–	–	–	–	–
COc1cccc(/C=N/NC(=O)CN(C)C)c1O	> 100	> 100 µM	> 100	> 100 µM	> 100 µM	> 100	> 100 µM	> 100	> 100 µM	> 100 µM	–	–	–	–	–	–	–	–	–
COc1cc(C2c3cc4c(cc3OC(NNc3ccccc3)C2C)OCO4)cc(OC)c1O (stereo not drawn)	13.3	10.4 µM	12	12 µM	11 µM	2.75	12.1 µM	14.9	21 µM	13.3 µM	–	–	–	–	–	–	–	–	–
CC(=O)CC12NC(=O)N(C)N=C1N(C)C(=O)N(C)C2=O (stereo not drawn)	> 100	> 100 µM	> 100	> 100 µM	26.5 µM	43.3	> 100 µM	> 100	> 100 µM	> 100 µM	–	–	–	–	–	–	–	–	–
CCc1n[nH]c(=O)n1N=C(c1ccccc1)c1ccccc1	> 100	> 100 µM	> 100	> 100 µM	> 100 µM	> 100	> 100 µM	> 100	> 100 µM	> 100 µM	–	–	–	–	–	–	–	–	–
Cc1csc2c(=O)n(COCc3ccccc3)c(=O)[nH]c12	> 100	> 100 µM	> 100	> 100 µM	> 100 µM	> 100	> 100 µM	> 100	> 100 µM	> 100 µM	–	–	–	–	–	–	–	–	–
O=C(c1cccnc1)N1N=C(c2ccc3c(c2)OCO3)CC1(O)c1cc(F)c(Cl)cc1Cl (stereo not drawn)	> 100	38.9 µM	> 100	> 100 µM	54.1 µM	> 100	33.8 µM	> 100	84.5 µM	41.3 µM	–	–	–	–	–	–	–	–	–
Cc1cc2c(cc1-c1cc3c(cc1C)C(C(C)C)=C(O)C(=O)/C3=C\Nc1ccccn1)/C(=C/Nc1ccccn1)C(=O)C(O)=C2C(C)C	> 100	> 100 µM	> 100	73.6 µM	67.6 µM	> 100	74.8 µM	> 100	> 100 µM	–	–	–	–	–	–	–	–	–	–
CC(=O)OC12OC(C)(C3C(=O)N(c4ccccc4)C(=O)C31)N(c1ccccc1)C2=O (stereo not drawn)	> 100	> 100 µM	> 100	> 100 µM	> 100 µM	> 100	> 100 µM	> 100	> 100 µM	> 100 µM	–	–	–	–	–	–	–	–	–
C=CC(=C)CCC(Br)C(C)(C)Cl (stereo not drawn)	> 100	> 100 µM	> 100	> 100 µM	> 100 µM	> 100	54.2 µM	> 100	> 100 µM	> 100 µM	–	–	–	–	–	–	–	–	–
O=C1C(c2c(O)[nH]c3ccc(I)cc23)=Nc2ccccc21	20.3	11.8 µM	> 100	> 100 µM	> 86.1 µM	> 100	> 58.9 µM	9.4	> 56.7 µM	14.4 µM	–	–	–	–	–	–	–	–	–
Cc1cc(N)c2cc(NC(=O)Nc3ccc4nc(C)cc(N)c4c3)ccc2n1	> 100	> 100 µM	> 100	> 100 µM	> 100 µM	> 100	> 100 µM	> 100	> 100 µM	> 100 µM	–	–	–	–	–	–	–	–	–
N#Cc1c(O)c(C=O)c(=O)n2c1[nH]c1ccccc12	> 100	> 100 µM	> 100	> 100 µM	> 100 µM	> 100	> 100 µM	> 100	> 100 µM	> 100 µM	–	–	–	–	–	–	–	–	–
CC(=O)N1CCN(CCCCN2c3ccccc3Sc3cc(N=[N+]=[N-])ccc32)CC1	30	28.2 µM	32.7	28.2 µM	33 µM	30.5	26.3 µM	20	29.3 µM	23.5 µM	–	–	–	–	–	–	–	–	–
O=C1CCc2ccccc2O1	–	> 100 µM	> 100	> 100 µM	> 100 µM	> 100	> 100 µM	> 100	> 100 µM	> 100 µM	–	–	–	–	–	–	–	–	–
CCOC(=O)C(NC(=O)c1ccccc1)(Nc1ccc(S(=O)(=O)Nc2ccc(OC)nn2)cc1)C(F)(F)F (stereo not drawn)	> 100	> 100 µM	> 100	> 100 µM	> 100 µM	> 100	> 100 µM	> 100	> 100 µM	> 100 µM	–	–	–	–	–	–	–	–	–
Nc1nc(N)c2nc(CNc3ccc(C(=O)NC(CCNC(=O)c4ccccc4C(=O)O)C(=O)O)cc3)cnc2n1 (stereo not drawn)	> 100	> 100 µM	> 100	> 100 µM	> 100 µM	> 100	> 100 µM	> 100	> 100 µM	> 100 µM	0.0688	0.0451	0.49	0.00666	0.00628	0.04	–	–	–
CC1(C)OC2[C@@H](CO[C@@]3([C@H]4OC(C)(C)O[C@@H]4CO)OC(C)(C)O[C@@H]23)O1 (stereo partly drawn)	> 100	> 100 µM	> 100	> 100 µM	> 100 µM	> 100	> 100 µM	> 100	> 100 µM	> 100 µM	–	–	–	–	–	–	–	–	–
COC(=O)C1=C(C)NC2=C(C(=O)c3ccccc32)C1c1cn[nH]c1-c1ccccc1 (stereo not drawn)	> 100	> 100 µM	> 100	> 100 µM	> 100 µM	> 100	> 100 µM	> 100	> 100 µM	> 100 µM	–	–	–	–	–	–	–	–	–
N#CCN1CCCN(CC#N)CCN(CC#N)CCCN(CC#N)CC1	> 100	> 100 µM	> 100	> 100 µM	> 100 µM	> 100	> 100 µM	> 100	> 100 µM	> 100 µM	–	–	–	–	–	–	–	–	–
O=C1C=CC(=O)[C@H]2C3C=CC(C4C3C3(Cl)C(Cl)=C(Cl)[C@]4(Cl)C3(Cl)Cl)[C@@H]12 (stereo partly drawn)	16	20.9 µM	31.2	17 µM	22.6 µM	15.8	23.1 µM	16.4	23.2 µM	22.1 µM	–	–	–	–	–	–	–	–	–
O=C1C(=O)N(C23CC4CC(CC(C4)C2)C3)C(=S)N1c1ccccc1	> 100	> 100 µM	> 100	> 100 µM	> 100 µM	> 100	> 100 µM	> 100	> 100 µM	> 100 µM	–	–	–	–	–	–	–	–	–
NC(CS)C(=O)NCCNc1ccc(NCCNC(=O)C(N)CS)c2c1C(=O)c1c(O)ccc(O)c1C2=O (stereo not drawn)	0.191	0.123 µM and 0.104 µM	0.615	0.874 µM and 0.264 µM	1.27 µM and 1.24 µM	1.68	0.421 µM and 0.127 µM	1.13	1.24 µM and 1.01 µM	0.477 µM and 0.316 µM	–	–	–	–	0.0218	0.0598	0.0393	0.0818	0.0165
O=C(CBr)NCCc1c[nH]c2ccccc12	–	3.2 µM	42.2	3.85 µM	9.41 µM	4.44	0.458 µM	4.03	7.71 µM	3.2 µM	–	–	–	–	–	–	–	–	–
NCCN(CCN)/[N+]([O-])=N/O	> 100	> 100 µM	> 100	> 100 µM	> 100 µM	> 100	> 100 µM	> 100	> 100 µM	> 100 µM	–	–	–	–	–	–	–	–	–
CCOC(=O)CCC(C(=O)OCC)n1nnc2ccc(Nc3c(C)[n+]([O-])c4cc(F)c(OCC)cc4[n+]3[O-])cc21 (stereo not drawn)	> 100	> 100 µM	> 100	> 100 µM	> 100 µM	> 100	> 100 µM	> 100	> 100 µM	> 100 µM	–	–	–	–	–	–	–	–	–
N#CC(C#N)C1CN2CCC1CC2 (stereo not drawn)	> 100	> 100 µM	> 100	> 100 µM	> 100 µM	> 100	> 100 µM	> 100	> 100 µM	> 100 µM	–	–	–	–	–	–	–	–	–
Clc1ccc(Nc2nnc(CNc3ccc(-c4nnc(Nc5ccc(Cl)cc5)o4)cc3)o2)cc1	30.2	43.6 µM	36.7	23.3 µM	28.5 µM	44.5	37.1 µM	25.3	51.2 µM	35.2 µM	–	–	–	–	–	–	–	–	–
